One series has as its target T1, ACE C-domain (Homo sapiens, UniProt P12821).
T1 construct: with a dissociation constant more than 3 orders of magnitude lower for the ACE C-domain than the N-domain
Conditions: lower for C-domain; cited from earlier work.

The conditions of series [1]: cited from earlier work.
The next series relates to cytokine expression. Put plainly: cytokine expression with ACE inhibitor, ACE7 (N-terminus KO) vs wild type (FIG. 11). In kind it is cell-based, mouse. The note with it: ACE7 (N-terminus KO) and wild type. Here is the method: (§1) To obtain large numbers of macrophages, N-KO, C-KO and WT mice were injected intraperitoneally with thioglycolate. After four days, cells were collected, washed and counted. Aliquots of 1×10^6 cells were adhered in 24 well plates. After 2 hrs, non-adherent cells were removed and the plates were visually evaluated to verify that wells contained nearly identical numbers of adherent cells. Media containing 1 ug/ml of LPS (a model activator of macrophages) was then added. After 24 hrs, supernatants were collected and the concentrations of TNF-α and IL-12p40 (one of the 2 proteins comprising IL-12) were determined by ELISA (eBioscience). However, there was a marked difference in cytokine expression profile; macrophages derived from N-KO mice producing far more TNF- a and IL-12p40 than either C-KO or WT mice (p values for TNF-α: N-KO vs. C-KO or WT, p<0.001; p values for IL12p40: N-KO vs. C-KO or WT, p<0.02). Further, there was a clear trend of macrophages from C-KO mice producing less cytokines than wild-type cells (TNF- a: C-KO vs. WT, p<0.07; IL12p40: C-KO vs. WT, p<0.02). Thus, in the absence of ACE N-terminal catalytic activity, TNF-α and IL-12 cytokine expression was increased. In the absence of C-terminal catalytic activity, there is a strong reduction of production of these cytokines. […]

The next series concerns TNF. Put plainly: TNF with AT1R inhibitor, ACE7 (N-terminus KO) vs wild type (FIG. 12). The note with it: ACE7 (N-terminus KO) and wild type. Type of series: cell-based, mouse. Here is the method: FIG. 12 depicts, in accordance with an embodiment of the present invention, AT1R inhibitor losartan can lower TNF, but cannot eliminate the difference between ACE7 (N-terminus KO) and wild type.
as §1, with “increased.” for “increased. In the absence of C-terminal catalytic activity, there is a strong reduction of production of these cytokines.”

Series [2] concerns the target AcSDAcKP (synthetic ACE substrate). The series can be described thus: cell-based or functional assay.
Series [3] addresses Hip-His-Leu (HHL) (synthetic ACE substrate). The series can be described thus: cell-based or functional assay.
Series [4] relates to 2-kidney, 1-clip hypertensive rats. Conditions: osmotic mini-pump; cited from earlier work.
Another series relates to macrophages. The note with it: cited from earlier work.
Series [5] concerns aldosterone-salt hypertension. The note with it: cited from earlier work.
The test system of series [6] is angiotensin II-induced hypertension. The note with it: secondary to angiotensin II-induced hypertension; cited from earlier work.
Another series concerns cardiac fibroblasts. The note with it: cited from earlier work.
The next series relates to Smad2. The note with it: cited from earlier work.

Ends that are not written are not given here.

T1 sequence (P12821 643-1222 limits assumed): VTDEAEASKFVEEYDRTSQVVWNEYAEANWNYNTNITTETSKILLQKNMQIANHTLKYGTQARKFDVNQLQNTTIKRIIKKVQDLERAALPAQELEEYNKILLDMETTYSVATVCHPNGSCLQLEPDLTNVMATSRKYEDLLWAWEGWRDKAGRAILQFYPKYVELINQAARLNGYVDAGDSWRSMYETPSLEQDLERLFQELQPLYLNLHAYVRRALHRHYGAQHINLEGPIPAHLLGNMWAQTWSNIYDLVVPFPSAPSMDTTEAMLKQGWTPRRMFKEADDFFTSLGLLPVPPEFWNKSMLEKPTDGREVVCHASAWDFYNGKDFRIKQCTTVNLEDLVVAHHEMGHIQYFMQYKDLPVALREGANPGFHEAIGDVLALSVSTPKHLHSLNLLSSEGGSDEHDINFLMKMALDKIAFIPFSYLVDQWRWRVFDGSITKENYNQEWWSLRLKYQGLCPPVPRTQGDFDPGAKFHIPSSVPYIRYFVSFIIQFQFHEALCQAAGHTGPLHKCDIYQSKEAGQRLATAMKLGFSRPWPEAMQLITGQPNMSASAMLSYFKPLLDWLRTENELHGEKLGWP

Consider `O=C(NC(Cc1ccccc1)P(=O)(O)C1CCCC1C(=O)NC(Cc1c[nH]c2ccccc12)C(=O)O)OCc1ccccc1` (centres unmarked) [RXPA 380], for which the “dissociation constant for the ACE C-domain relative to the N-domain” value on ACE C-domain is on record as “more than 3 orders of magnitude”. Further, in [1] (mice), the effectiveness in mice entry is on record as “effective”. Further, in [1] (mouse, in vivo), the stability in vivo entry is recorded as “stable”.
For `NCCCC[C@H](N[C@@H](CCc1ccccc1)C(=O)O)C(=O)N1CCC[C@H]1C(=O)O` [lisinopril], the cytokine expression entry in the series with cytokine expression is listed as “can lower cytokine expression”.
For the molecule `CCCCc1nc(Cl)c(CO)n1Cc1ccc(-c2ccccc2-c2nn[nH]n2)cc1` [losartan], the TNF result with TNF is “can lower TNF”.
In [2], “ACE of ACE 7/7 (N-KO) mice: mouse angiotensin converting enzyme with the N-terminal catalytic site inactivated (HEMGH motif converted to KEMGK) (from UniProt P09470 35-1237)” had a catalytic activity of plasma (cleavage efficiency against wild-type mice) (% of wild-type efficiency) of 3.
In [3], “ACE of ACE 13/13 (C-KO) mice: mouse angiotensin converting enzyme with the C-terminal catalytic site inactivated (histidines of HEMGH mutated to lysines) (from UniProt P09470 35-1237)” gave a catalytic activity of plasma (hydrolysis efficiency against wild-type mice) (% of wild-type efficiency) of 18.
Regarding “Acetyl-SerAspLysPro (Ac-SDKP) [AcSDKP, tetrapeptide cleaved from thymosin-β4 by prolyl oligopeptidase]”, in series [4], the blood pressure result is recorded as “no effect on blood pressure” and the “development of fibrosis in the heart” value was “prevented the development of fibrosis in the heart”. Besides, the “macrophage production of TNF” value in the series on macrophages was “reducing macrophage production of TNF”. In addition, in [5], the “collagen deposition and cell proliferation in the heart and kidney” value was “prevented increased collagen deposition and cell proliferation”. In addition, the aortic fibrosis entry in [6] is “reduced aortic fibrosis”. The “growth of cardiac fibroblasts” value in the series with cardiac fibroblasts is on record as “inhibits the growth of cardiac fibroblasts”. Besides, in the series with Smad2, the “TGF-β1 stimulated phosphorylation of Smad2” value is recorded as “inhibits”.
